# In doi:10.1101/2025.02.07.637162, “Lactate dehydrogenase is the Achilles’ heel of Lyme disease bacterium Borreliella burgdorferi” (bioRxiv, 2025):
# Key:
# [1] = molecular target: T1, BbLDH (BB_0087, lactate dehydrogenase) (Borreliella burgdorferi, UniProt O51114); experiment: X-ray crystal structure, […] Å; allosteric activation of enzyme activity; assay type: binding
# T1 construct: gene ldh; full-length, 316 residues
# [2] = molecular target: T1, BbLDH (BB_0087, lactate dehydrogenase); experiment: X-ray crystal structure, […] Å; assay type: binding
# T1 sequence (O51114 whole entry): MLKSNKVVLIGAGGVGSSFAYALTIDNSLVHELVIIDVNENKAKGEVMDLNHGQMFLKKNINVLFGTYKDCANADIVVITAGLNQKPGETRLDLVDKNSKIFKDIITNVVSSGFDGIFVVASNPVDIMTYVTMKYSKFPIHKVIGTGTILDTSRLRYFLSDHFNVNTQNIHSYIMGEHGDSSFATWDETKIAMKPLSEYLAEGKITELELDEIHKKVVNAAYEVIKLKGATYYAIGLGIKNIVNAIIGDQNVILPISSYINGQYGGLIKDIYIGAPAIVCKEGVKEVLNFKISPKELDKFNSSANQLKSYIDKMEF
Structure (SMILES),"X-ray crystal structure, 2.1 Å; allosteric activation of enzyme activity [1]","X-ray crystal structure, 2.1 Å [2]"
"O=P(O)(O)OC[C@H]1OC(O)(COP(=O)(O)O)[C@@H](O)[C@@H]1O (some centres unmarked) [FBP, fructose 1,6-bisphosphate]","Salt bridge and hydrogen bonding residues that interact with FBP in BbLDH (chain A and C, pink and yellow)",–
NC(=O)C1=CN([C@@H]2O[C@H](COP(=O)(O)OP(=O)(O)OC[C@H]3O[C@@H](n4cnc5c(N)ncnc54)[C@H](O)[C@@H]3O)[C@@H](O)[C@H]2O)C=CC1 [NADH],–,Both structures were determined in the presence of NADH and the pyruvate analog oxamate (OXA)
